Results published in patent US10214512B2, “Factor XIA inhibitors” (MERCK SHARP & DOHME CORP., priority 2015, dated 2019).

What was measured:
[1] = biological target: purified Human plasma Kallikrein (Homo sapiens (Human), UniProt P03952); assay: Kallikrein Assay; assay type: biochemical; conditions: purified Human plasma Kallikrein 0.5 nM; substrate Acetyl-K-P-R-AFC; 50 mM HEPES pH 7.4; Ki from IC50 by Cheng Prusoff
Procedure, shortened: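 Purified human plasma kallikrein (0.5 nM) with fluorogenic Ac-K-P-R-AFC ([…]) in 50 mM HEPES pH 7.4, 150 mM NaCl, 5 mM CaCl2, 0.1% PEG 8000, at rt or 37 °C. Substrate hydrolysis rate read with and without inhibitor; IC50 from four-parameter logistic fit, converted to Ki by Cheng–Prusoff.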

[2] = biological target: purified human Factor XIa (Homo sapiens (Human), UniProt P03951); assay: Factor XIa Assay; assay type: biochemical; conditions: purified human Factor XIa 40 pM; substrate Z-Gly-Pro-Arg-AFC 100 μM; 50 mM HEPES pH 7.4; read-out: Human FXIa Ki
Procedure, shortened: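 Ki obtained from the dependence of uninhibited/inhibited initial-velocity ratio on inhibitor concentration, under a competitive-inhibition model. Reactions used 100 μM Z-Gly-Pro-Arg-AFC and 40 pM final human Factor XIa in pH 7.4 HEPES buffer with NaCl, CaCl2 and PEG 8000; run at rt or 37° C following pre-equilibration.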

Sequence of purified human Factor XIa (P03951 388-625): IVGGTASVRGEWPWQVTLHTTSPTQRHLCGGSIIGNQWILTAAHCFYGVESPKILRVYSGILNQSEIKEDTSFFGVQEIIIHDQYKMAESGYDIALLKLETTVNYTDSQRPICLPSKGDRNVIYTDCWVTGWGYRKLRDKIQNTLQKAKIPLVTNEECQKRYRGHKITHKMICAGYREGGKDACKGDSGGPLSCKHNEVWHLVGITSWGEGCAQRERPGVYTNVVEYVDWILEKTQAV
Sequence of purified human Factor XIa (P03951 19-387 partner): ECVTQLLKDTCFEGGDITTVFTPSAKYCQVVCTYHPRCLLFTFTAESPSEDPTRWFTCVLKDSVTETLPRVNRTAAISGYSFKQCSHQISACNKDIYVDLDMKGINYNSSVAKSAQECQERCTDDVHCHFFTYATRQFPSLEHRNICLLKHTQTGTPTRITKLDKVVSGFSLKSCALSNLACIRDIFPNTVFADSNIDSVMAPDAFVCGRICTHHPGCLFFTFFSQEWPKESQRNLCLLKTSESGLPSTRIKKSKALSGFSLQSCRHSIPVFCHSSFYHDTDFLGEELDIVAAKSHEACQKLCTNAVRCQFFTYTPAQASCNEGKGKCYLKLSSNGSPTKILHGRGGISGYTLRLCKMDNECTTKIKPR
Sequence of purified Human plasma Kallikrein (P03952 391-638): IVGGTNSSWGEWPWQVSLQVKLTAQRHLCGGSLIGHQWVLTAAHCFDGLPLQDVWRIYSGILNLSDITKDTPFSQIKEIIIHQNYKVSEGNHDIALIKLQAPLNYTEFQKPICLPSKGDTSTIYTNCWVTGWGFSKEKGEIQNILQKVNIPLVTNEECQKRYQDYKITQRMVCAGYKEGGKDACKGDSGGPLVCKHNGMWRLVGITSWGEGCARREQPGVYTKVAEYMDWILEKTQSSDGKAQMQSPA
Sequence of purified Human plasma Kallikrein (P03952 20-390 partner): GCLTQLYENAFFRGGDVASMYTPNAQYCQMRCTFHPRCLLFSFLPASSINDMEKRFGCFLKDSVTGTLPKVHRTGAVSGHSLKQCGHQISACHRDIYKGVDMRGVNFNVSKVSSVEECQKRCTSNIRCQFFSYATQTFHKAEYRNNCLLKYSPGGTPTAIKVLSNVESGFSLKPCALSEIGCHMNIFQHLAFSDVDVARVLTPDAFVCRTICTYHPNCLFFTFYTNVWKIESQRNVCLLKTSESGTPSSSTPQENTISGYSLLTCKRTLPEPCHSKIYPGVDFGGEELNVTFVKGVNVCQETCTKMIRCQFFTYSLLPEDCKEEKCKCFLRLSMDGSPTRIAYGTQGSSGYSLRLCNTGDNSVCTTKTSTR

Row | Ki [1] | Ki [2] | Compound
1 | 0.74 nM | 0.14 nM | Cc1[nH]c2nc1-c1ccc(N)cc1NC(=O)CCCC[C@@H]2c1ccc(-c2c(F)ccc(Cl)c2F)c[n+]1[O-] (single isomer, unassigned) [Example 128]
2 | 1.72 nM | 0.12 nM | COC(=O)Nc1ccc2c(c1)NC(=O)CCCC[C@H](c1ccc(-c3cc(F)ccc3OC(F)F)c[n+]1[O-])c1nc-2c(C)[nH]1 (single isomer, unassigned) [Example 129]
3 | 2.7 nM | 0.09 nM | O=C1CCCC[C@H](c2ccc(-c3cc(Cl)ccc3-n3cnnn3)c[n+]2[O-])c2cccc(c2)-c2cc(F)ccc2N1 [Example 2-a, (S) 5-(5-chloro-2-(1H-tetrazol-1-yl)phenyl)-2-(2^5-fluoro-4-oxo-3-aza-1(1,3),2(1,2)-dibenzenacyclononaphane-9-yl)pyridine 1-oxide]
4 | 6.79 nM | 1.87 nM | COC(=O)Nc1ccc2c(c1)NC(=O)CCCC[C@H](c1ccc(-c3c(F)ccc(Cl)c3F)c[n+]1[O-])c1cc(F)c(F)c-2c1 (single isomer, unassigned) [Example 69]
5 | 0.46 nM | 0.14 nM | COC(=O)Nc1ccc2c(c1)NC(=O)CCCCC(c1ccc(-c3cc(Cl)ccc3-n3cnnn3)c[n+]1[O-])c1cc-2[n+]([O-])cc1F (single isomer, unassigned) [Example 81-a, 9-(5-(5-chloro-2-(1h-tetrazol-1-yl)phenyl)-1-oxidopyridin-2-yl)-1^5-fluoro-2^4-((methoxycarbonyl)amino)-4-oxo-3-aza-1(2,4)-pyridin-1-iuma-2(1,2)-benzenacyclononaphane 1^1-oxide]
6 | 161 nM | 3.3 nM | COC(=O)Nc1ccc2c(c1)NC(=O)CCCCC(c1ccc(-c3cc(Cl)ccc3-n3cnnn3)cn1)c1nc-2c[nH]1 (centres unmarked) [Example 97, methyl (Z)-(9-(5-(5-chloro-2-(1H-tetrazol-1-yl)phenyl)pyridin-2-yl)-4-oxo-1^1H-3-AZA-1(4,2)-imidazola-2(1,2)-benzenacyclononaphane-2^4-yl)carbamate]
7 | 26.3 nM | 10.8 nM | O=C1CCCCC(c2ccc(-c3c(F)ccc(Cl)c3F)c[n+]2[O-])c2nc(c[nH]2)-c2cc(F)ccc2N1 (single isomer, unassigned) [Example 104-a]
8 | 2.68 nM | 0.8 nM | COC(=O)Nc1ccc2c(c1)NC(=O)CCCC[C@H](c1ccc(-c3cc(Cl)ccc3C#N)c[n+]1[O-])c1cccc-2c1 (single isomer, unassigned) [Example 31]
9 | 37.5 nM | 5.69 nM | O=C1CCCC[C@H](c2ccc(-c3cc(Cl)ccc3-c3cnco3)c[n+]2[O-])c2nc(c[nH]2)-c2cc(F)ccc2N1 (single isomer, unassigned) [Example 118]
10 | 1.02 nM | 0.18 nM | Nc1ccc2c(c1)NC(=O)CCCCC(c1ccc(-c3c(F)ccc(Cl)c3F)c[n+]1[O-])c1nc-2c[nH]1 (single isomer, unassigned) [Example 108-a]
11 | 17.2 nM | 0.56 nM | O=C1CCCCC(c2ccc(-c3cc(Cl)ccc3-n3cc(C(F)F)nn3)c[n+]2[O-])c2nc(c[nH]2)-c2cc(F)ccc2N1 (single isomer, unassigned) [Example 105-a, (Z)-5-(5-Chloro-2-(4-(difluoromethyl)-1H-1,2,3-triazol-1-yl)phenyl)-2-(2^5-fluoro-4-oxo-1^1H-3-aza-1 (4,2)-imidazola-2(1,2)-benzenacyclononaphane-9-yl)pyridine 1-oxide]

The remaining lines, values behind:

Row | Compound | Ki [1] | Ki [2]
12 | COC(=O)Nc1ccc2c(c1)NC(=O)CCCC[C@H](c1ccc(-c3cc(Cl)ccc3-n3cc(C(F)(F)F)nn3)c[n+]1[O-])c1cccc-2c1 [Example 39, (S)-5-(5-chloro-2-(4-(trifluoromethyl)-1H-1,2,3-triazol-1-yl)phenyl)-2-(2^4-((methoxycarbonyl)amino)-4-oxo-3-aza-1(1,3),2(1,2)-dibenzenacyclononaphane-9-yl)pyridine 1-oxide] | 0.81 nM | 0.26 nM
13 | COC(=O)Nc1cc(F)c2c(c1)NC(=O)C(C)CCCC(c1ccc(-c3c(F)ccc(Cl)c3F)c[n+]1[O-])c1cccc-2c1 (single isomer, unassigned) [Example 85-b, 5-(3-Chloro-2,6-difluorophenyl)-2-(2^6-fluoro-2^4-((methoxycarbonyl)amino)-5-methyl-4-oxo-3-aza-1(1,3),2(1,2)-dibenzenacyclononaphane-9-yl)pyridine 1-oxide] | 15.2 nM | 6 nM
14 | COC(=O)Nc1ccc2c(c1)NC(=O)CCCC[C@H](c1ccc(-c3c(F)cccc3C(F)(F)F)c[n+]1[O-])c1nc-2c(C)[nH]1 (single isomer, unassigned) [Example 122] | 2.96 nM | 0.36 nM
15 | O=C(C1CCCCC(c2ccc(-c3cc(Cl)ccc3-n3cnnn3)c[n+]2[O-])c2cccc(c2)-c2cc(F)ccc2N1)N1CCCC1 (single isomer, unassigned) [Example 79-c, 5-(5-Chloro-2-(1H-tetrazol-1-yl)phenyl)-2-(2^5-fluoro-4-(pyrrolidine-1-carbonyl)-3-aza-1(1,3),2(1,2)-dibenzenacyclononaphane-9-yl)pyridine 1-oxide] | 2920 nM | 52.2 nM
16 | CCOC(=O)Nc1ccc2c(c1)NC(=O)CCCC[C@H](c1ccc(-c3c(F)ccc(Cl)c3F)c[n+]1[O-])c1cccc-2c1 [Example 44, (s)-5-(3-chloro-2,6-difluorophenyl)-2-(2^4-((ethoxycarbonyl)amino)-4-oxo-3-aza-1(1,3),2(1,2)-dinenzenacyclononaphane-9-yl)pyridine 1-oxide] | 2.7 nM | 1.23 nM
17 | CCc1[nH]c2nc1-c1ccc(NC(=O)OC)cc1NC(=O)C(C)CCC[C@@H]2c1ccc(-c2c(F)cccc2F)c[n+]1[O-] (single isomer, unassigned) [Example 144] | 1.35 nM | 0.46 nM
18 | COC(=O)Nc1ccc2c(c1)NC(=O)[C@@H](C)CCC[C@@H](c1ccc(-c3c(F)cccc3F)c[n+]1[O-])c1nc-2c(C)[nH]1 (single isomer, unassigned) [Example 143-c] | 5.92 nM | 1.4 nM
19 | COC(=O)Nc1ccc2c(c1)NC(=O)C[C@H]1C[C@@H]1C[C@H](c1ccc(-c3c(F)ccc(Cl)c3F)c[n+]1[O-])c1cccc-2c1 (single isomer, unassigned) [Example 66] | 10.2 nM | 2.1 nM
20 | 2-(2^5-carboxy-4-oxo-3-aza- 1(1,3),2(1,2)- dibenzenacyclononaphane-9-yl)-5- (3-chloro-2,6-difluorophenyl)pyridine 1-oxide [Example 9] | 379 nM | 13.6 nM
21 | COC(=O)Nc1ccc2c(c1)NC(=O)C(C)CCCC(c1ccc(-c3c(F)ccc(Cl)c3F)c[n+]1[O-])c1ccc(F)c-2c1 (single isomer, unassigned) [Example 86-d, 5-(3-Chloro-2,6-difluorophenyl)-2-(1^6-fluoro-2^4-((methoxycarbonyl)amino)-5-methyl-4-oxo-3-aza-1(1,3),2(1,2) -dibenzenacyclononaphane-9-yl)pyridine 1-oxide] | 5.36 nM | 1.65 nM
22 | COC(=O)Nc1ccc2c(c1)NC(=O)CCCC[C@H](c1ccc(-c3c(C(F)(F)F)ccc(Cl)c3F)c[n+]1[O-])c1nc-2c(C)[nH]1 (single isomer, unassigned) [Example 123] | 1.41 nM | 0.42 nM
